Test results taken from patent US9040530B2, “1,2,4-triazine-6-carboxamide kinase inhibitors” (Portola Pharmaceuticals, Inc., priority 2012, dated 2015).

Target: T1, full length active recombinant SYK enzyme (Homo sapiens, UniProt P43405)
T1 construct: full length active recombinant SYK enzyme (Millipore, Calif.); purchased Millipore
Assay: Inhibition of Syk tyrosine phosphorylation activity (LANCE TR-FRET kinase assay)
Type: biochemical
Settings: 1 nM active SYK enzyme, 550 nM SYK-substrate, 100 μM ATP, 1 hour at room temperature

| IC50 [nM] | SMILES |
| --- | --- |
| 10 to 100 | Cn1ccc2cc(Nc3nc(N[C@H]4CN[C@@H](CO)C4)nnc3C(N)=O)cnc21 [Example 153, 3-(((3R,5R)-5-(hydroxymethyl)pyrrolidin-3-yl)amino)-5-((1-methyl-1H-pyrrolo[2,3-b]pyridin-5-yl)amino)-1,2,4-triazine-6-carboxamide] |
| 10 to 100 | CC[C@@H](Nc1nnc(C(N)=O)c(Nc2ccc(C)c(Cl)c2)n1)C(N)=O [Example 222, (R)-3-((1-amino-1-oxobutan-2-yl)amino)-5-((3-chloro-4-methylphenyl)amino)-1,2,4-triazine-6-carboxamide] |
| 10 to 100 | NC(=O)c1nnc(N[C@@H]2CCCC(F)(F)[C@@H]2N)nc1Nc1ccc(C(F)(F)F)cc1 [Example 239, 3-(((1R,2R)-2-amino-3,3-difluorocyclohexyl)amino)-5-((4-(trifluoromethyl)phenyl)amino)-1,2,4-triazine-6-carboxamide] |
| 1 to 10 | COc1ccc(Nc2nc(N[C@@H]3CCCC[C@@H]3N)nnc2C(N)=O)cc1C(F)(F)F [Example 114, 3-(((1R,2S)-2-aminocyclohexyl)amino)-5-((4-methoxy-3-(trifluoromethyl)phenyl)amino)-1,2,4-triazine-6-carboxamide] |
| 100 to 1000 | NC(=O)c1nnc(N[C@@H]2CCCC[C@@H]2N)nc1Nc1ccc(N2CCOCC2=O)c(F)c1 [Example 33, 3-(((1R,2S)-2-aminocyclohexyl)amino)-5-((3-fluoro-4-(3-oxomorpholino)phenyl)amino)-1,2,4-triazine-6-carboxamide] |
| 10 to 100 | CC[C@@H](Nc1nnc(C(N)=O)c(Nc2cc(C)cc(F)c2)n1)C(N)=O [Example 197, (R)-3-((1-amino-1-oxobutan-2-yl)amino)-5-((3-fluoro-5-methylphenyl)amino)-1,2,4-triazine-6-carboxamide] |
| 1 to 10 | NC(=O)c1nnc(N[C@@H]2CCCC[C@@H]2N)nc1Nc1ccccc1 [Example 69, 3-(((1R,2S)-2-aminocyclohexyl)amino)-5-(phenylamino)-1,2,4-triazine-6-carboxamide] |
| 1 to 10 | NC(=O)c1nnc(N[C@H](CC(F)(F)F)C(N)=O)nc1Nc1ccc2ncccc2c1 [Example 149, (R)-3-((1-amino-4,4,4-trifluoro-1-oxobutan-2-yl)amino)-5-(quinolin-6-ylamino)-1,2,4-triazine-6-carboxamide] |
| 1 to 10 | NC(=O)c1nnc(N[C@@H]2CCCC[C@@H]2N)nc1Nc1cccc(OC(F)F)c1 [Example 124, 3-(((1R,2S)-2-aminocyclohexyl)amino)-5-((3-(difluoromethoxy)phenyl)amino)-1,2,4-triazine-6-carboxamide] |
| 10 to 100 | NC(=O)c1nnc(N[C@@H]2CCCC[C@@H]2N)nc1NC1CCc2ccccc2C1 (stereo partly drawn) [Example 206, 3-(((1R,2S)-2-aminocyclohexyl)amino)-5-((1,2,3,4-tetrahydronaphthalen-2-yl)amino)-1,2,4-triazine-6-carboxamide] |
| 1 to 10 | Cc1ccc(Nc2nc(N[C@@H]3CCCC[C@@H]3N)nnc2C(N)=O)cc1C [Example 207, 3-(((1R,2S)-2-aminocyclohexyl)amino)-5-((3,4-dimethylphenyl)amino)-1,2,4-triazine-6-carboxamide] |
| 1 to 10 | NC(=O)c1nnc(N[C@@H]2CCOC[C@@H]2N)nc1Nc1cccc(-c2ncco2)c1 [Example 252, 3-(((3R,4R)-3-aminotetrahydro-2H-pyran-4-yl)amino)-5-((3-(oxazol-2-yl)phenyl)amino)-1,2,4-triazine-6-carboxamide] |
| 1 to 10 | CC[C@@H](Nc1nnc(C(N)=O)c(Nc2ccc3c(c2)COCC3)n1)C(N)=O [Example 227, (R)-3-((1-amino-1-oxobutan-2-yl)amino)-5-(isochroman-7-ylamino)-1,2,4-triazine-6-carboxamide] |
| 10 to 100 | NC(=O)c1nnc(N[C@@H]2CCCC[C@@H]2N)nc1Nc1ccc(F)cc1 [Example 25, 3-(((1R,2S)-2-aminocyclohexyl)amino)-5-((4-fluorophenyl)amino)-1,2,4-triazine-6-carboxamide] |
| 10 to 100 | Cn1ncc2c(Nc3nc(N[C@@H]4CCCC(F)(F)[C@@H]4N)nnc3C(N)=O)cccc21 [Example 117, 3-(((1R,2R)-2-amino-3,3-difluorocyclohexyl)amino)-5-((1-methyl-1H-indazol-4-yl)amino)-1,2,4-triazine-6-carboxamide] |
| 1 to 10 | Cc1ccc(Nc2nc(N[C@H](CC(C)C)C(N)=O)nnc2C(N)=O)cc1C [Example 209, (R)-3-((1-amino-4-methyl-1-oxopentan-2-yl)amino)-5-((3,4-dimethylphenyl)amino)-1,2,4-triazine-6-carboxamide] |
| 1 to 10 | NC(=O)c1nnc(N[C@@H]2CCCC[C@@H]2N)nc1Nc1cnc2ccccc2c1 [Example 58, 3-(((1R,2S)-2-aminocyclohexyl)amino)-5-(quinolin-3-ylamino)-1,2,4-triazine-6-carboxamide] |
| 10 to 100 | Cc1ccc(Nc2nc(N[C@@H]3CCCC(F)(F)[C@@H]3N)nnc2C(N)=O)cc1 [Example 167, 3-(((1R,2R)-2-amino-3,3-difluorocyclohexyl)amino)-5-(p-tolylamino)-1,2,4-triazine-6-carboxamide] |

| IC50 [nM] | SMILES |
| --- | --- |
| 10 to 100 | NC(=O)c1nnc(N[C@@H]2CCCC(F)(F)[C@@H]2N)nc1Nc1csc2ncccc12 [Example 38, 3-(((1R,2R)-2-amino-3,3-difluorocyclohexyl)amino)-5-(thieno[2,3-b]pyridin-3-ylamino)-1,2,4-triazine-6-carboxamide] |
| > 1000 | NC(=O)c1nnc(N[C@@H]2CCCC(F)(F)[C@@H]2N)nc1Nc1cccc(-c2ncco2)c1 [Example 130, 3-(((1R,2R)-2-amino-3,3-difluorocyclohexyl)amino)-5-((3-(oxazol-2-yl)phenyl)amino)-1,2,4-triazine-6-carboxamide] |
| 1 to 10 | Cn1ccc2cc(Nc3nc(N[C@@H]4CCCC[C@@H]4N)nnc3C(N)=O)cnc21 [Example 154, 3-(((1R,2S)-2-aminocyclohexyl)amino)-5-((1-methyl-1H-pyrrolo[2,3-b]pyridin-5-yl)amino)-1,2,4-triazine-6-carboxamide] |
| 1 to 10 | CC(C)C[C@@H](Nc1nnc(C(N)=O)c(Nc2ccc3cc[nH]c3c2)n1)C(N)=O [Example 103, (R)-5-((1H-indol-6-yl)amino)-3-((1-amino-4-methyl-1-oxopentan-2-yl)amino)-1,2,4-triazine-6-carboxamide] |
| 100 to 1000 | CC[C@@H](Nc1nnc(C(N)=O)c(Nc2ccccc2)n1)C(N)=O [Example 99, (R)-3-((1-amino-1-oxobutan-2-yl)amino)-5-(phenylamino)-1,2,4-triazine-6-carboxamide] |
| 10 to 100 | NC(=O)c1nnc(N[C@@H]2CCOC[C@@H]2N)nc1Nc1cccc(-c2ncccn2)c1 [Example 71, 3-(((3R,4R)-3-aminotetrahydro-2H-pyran-4-yl)amino)-5-((3-(pyrimidin-2-yl)phenyl)amino)-1,2,4-triazine-6-carboxamide] |
| 10 to 100 | CC(C)[C@@H](Nc1nnc(C(N)=O)c(Nc2ccc3ncccc3c2)n1)C(N)=O [Example 52, (R)-3-((1-amino-3-methyl-1-oxobutan-2-yl)amino)-5-(quinolin-6-ylamino)-1,2,4-triazine-6-carboxamide] |
| 1 to 10 | Cn1cc(C#N)c2ccc(Nc3nc(N[C@H](CC(F)F)C(N)=O)nnc3C(N)=O)cc21 [Example 147, (R)-3-((1-amino-4,4-difluoro-1-oxobutan-2-yl)amino)-5-((3-cyano-1-methyl-1H-indol-6-yl)amino)-1,2,4-triazine-6-carboxamide] |
| 1 to 10 | Cn1ccc2c(Nc3nc(N[C@@H]4CCNC4)nnc3C(N)=O)cccc21 [Example 90, (R)-5-((1-methyl-1H-indol-4-yl)amino)-3-(pyrrolidin-3-ylamino)-1,2,4-triazine-6-carboxamide] |
| < 1 | NC(=O)c1nnc(N[C@@H]2CCCC[C@@H]2N)nc1Nc1cc(Cl)c2ncccc2c1 [Example 176, 3-(((1R,2S)-2-aminocyclohexyl)amino)-5-((8-chloroquinolin-6-yl)amino)-1,2,4-triazine-6-carboxamide] |
| 10 to 100 | Cc1cc(Nc2nc(N[C@@H]3CCCC[C@@H]3N)nnc2C(N)=O)sn1 [Example 101, 3-(((1R,2S)-2-aminocyclohexyl)amino)-5-((3-methylisothiazol-5-yl)amino)-1,2,4-triazine-6-carboxamide] |
| 10 to 100 | CC[C@@H](Nc1nnc(C(N)=O)c(Nc2cccc(Cl)c2)n1)C(N)=O [Example 194, (R)-3-((1-amino-1-oxobutan-2-yl)amino)-5-((3-chlorophenyl)amino)-1,2,4-triazine-6-carboxamide] |
| 10 to 100 | Cc1cccc(Nc2nc(N[C@@H]3CCCC(F)(F)[C@@H]3N)nnc2C(N)=O)c1 [Example 12, 3-(((1R,2R)-2-amino-3,3-difluorocyclohexyl)amino)-5-(m-tolylamino)-1,2,4-triazine-6-carboxamide] |
| 1 to 10 | NC(=O)c1nnc(N[C@@H]2CCOC[C@@H]2N)nc1Nc1ccc2c(c1)CCC2 [Example 223, 3-(((3R,4R)-3-aminotetrahydro-2H-pyran-4-yl)amino)-5-((2,3-dihydro-1H-inden-5-yl)amino)-1,2,4-triazine-6-carboxamide] |
| 1 to 10 | NC(=O)c1nnc(N[C@@H]2CCCC[C@@H]2N)nc1Nc1cnc2cc(F)ccc2c1 [Example 158, 3-(((1R,2S)-2-aminocyclohexyl)amino)-5-((7-fluoroquinolin-3-yl)amino)-1,2,4-triazine-6-carboxamide] |
| 100 to 1000 | NC(=O)c1nnc(N[C@@H]2CCCC[C@@H]2N)nc1Nc1cncc(F)c1 [Example 14, 3-(((1R,2S)-2-aminocyclohexyl)amino)-5-((5-fluoropyridin-3-yl)amino)-1,2,4-triazine-6-carboxamide] |
| 1 to 10 | NC(=O)c1nnc(N[C@@H]2CCCC[C@@H]2N)nc1Nc1cccc(Cl)c1 [Example 23, 3-(((1R,2S)-2-aminocyclohexyl)amino)-5-((3-chlorophenyl)amino)-1,2,4-triazine-6-carboxamide] |
